Columns and labels:
Classical Pathway = test: Inhibition of Classical pathway-mediated lysis of antibody-sensitized sheep erythrocytes in normal human serum; assay type: biochemical
Procedure: To determine whether the interaction of C2 with ShTORE-ed-1 could affect the normal interaction of C2 with other complement proteins and thereby inhibit complement activation, the effect of the TORE-ed-1 peptide on complement activation was assessed. The ability of the TORE-ed-1 peptide to inhibit the lysis of antibody-sensitized sheep erythrocytes, in the presence of normal human serum, NHS (and therefore in the presence of complement proteins C1 through to […]), in a dose-dependent manner, was used as a measure of its ability to inhibit the Classical Pathway. The extent of haemolysis was determined by spectrophotometric measurement of haemoglobin release at 412 nm. An IC60 value of approximately 10 μM was found (FIG. 11A and B).
(§1) FIG. 11(A) and (B) Effect of increasing TORE-ed1 peptide on the complement-mediated lysis of sensitized sheep red blood cells in the presence of normal human serum as a source of complement. FIG. 11(C) and (D) Effect of increasing TORE-ed1 peptide preincubated with C2 on haemolysis in the presence of human serum in which C2 is limiting. FIG. 11(E) effect of various Tore peptides and Tore related C4b-derived peptides on complement mediated lysis.

[1] = Immune complex inflammation in mouse ear (human albumin i.v., anti-HA s.c.); assay type: in vivo, Mice
Procedure: FIG. 22: Mice (7 or 8 per group) injected with human albumin (HA) 10 mg/kg i.v. (200 μl of a solution 1 mg/ml in Evans blue1%). After 5 min anti-HA injected s.c. in situ (in ear). Test compounds then injected and after 4 h evaluations made for reduction of inflammation. Oedema was evaluated by weight. Plasma extravasation as measure of microvascular permeability or haemorrage was measured by extraction of extravasated Evan's blue dye with formamide from injected ears. As well as subcutaneous (s.c.) administration of H17 (the test compound of formula HEVKIKHFSPY at two concentrations), it was also given intravenously (0.1 mg/kg). The positive control for reduction in inflammation in this experiment was cromolyn.

human complement C2 [2] = molecular target: T1, human complement C2 (Homo sapiens, UniProt P06681); test: Haemolysis with C2-deficient human serum reconstituted with C2, peptide preincubated with C2; assay type: biochemical; conditions: peptide preincubated with C2 before addition to C2-depleted serum
T1 sequence (P06681 21-752): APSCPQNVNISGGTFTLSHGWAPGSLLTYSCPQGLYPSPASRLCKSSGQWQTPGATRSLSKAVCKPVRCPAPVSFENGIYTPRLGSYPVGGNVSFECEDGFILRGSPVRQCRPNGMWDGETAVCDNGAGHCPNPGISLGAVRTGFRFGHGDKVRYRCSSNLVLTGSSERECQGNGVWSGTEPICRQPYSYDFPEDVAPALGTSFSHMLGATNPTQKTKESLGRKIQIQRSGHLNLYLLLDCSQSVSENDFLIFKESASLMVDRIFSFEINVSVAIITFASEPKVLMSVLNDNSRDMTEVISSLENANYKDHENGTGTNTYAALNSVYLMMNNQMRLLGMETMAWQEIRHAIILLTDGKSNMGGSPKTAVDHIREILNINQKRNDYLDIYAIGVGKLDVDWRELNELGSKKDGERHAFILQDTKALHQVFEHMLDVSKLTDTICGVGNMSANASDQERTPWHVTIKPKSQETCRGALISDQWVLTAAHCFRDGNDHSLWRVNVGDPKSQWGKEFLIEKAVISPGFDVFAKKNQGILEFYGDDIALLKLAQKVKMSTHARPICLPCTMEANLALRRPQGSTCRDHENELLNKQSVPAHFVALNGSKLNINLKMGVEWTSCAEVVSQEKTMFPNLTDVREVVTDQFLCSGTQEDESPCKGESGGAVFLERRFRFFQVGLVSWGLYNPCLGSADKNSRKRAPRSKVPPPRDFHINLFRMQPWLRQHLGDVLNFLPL
Procedure: As an additional confirmation that TORE-ed-1 specifically binds to human complement C2, C2-deficient human serum with enough C2 added to reconstitute haemolytic activity, was used in the same assay.
as §1

human complement C2 [3] = molecular target: T1, human complement C2; test: Receptor affinity chromatography with immobilised ed-1 peptide; assay type: binding; parameters: One litre of serum-free medium which had maintained the cells; endogenous in cells; host or cells: THP-1 (human macrophage-like cells), conditioned serum-free medium
From the text: In order to identify a likely ligand, the putative ligand-binding domain of ShTORE, extracellular domain 1 (ed-1), was used in receptor affinity chromatography. It was assumed that the cells expressing the receptor themselves produced the ligand in an “autocrine” manner. The cells chosen were the macrophage-like (human) THP-1 cells. These were adapted to grow in conditioned, serum-free medium in order to increase the chances of finding the ligand for TORE. One litre of serum-free medium which had maintained the cells, and as a control one litre of serum-free medium without cells, was passed through identical epoxy-activated Sepharose 6B columns with the 27-mer ShTORE-ed-1 peptide attached. Fractions were collected from a low pH elution and 20 μl aliquots run on SDS-PAGE. An 83 kDa protein band was identified (FIG. 10A, lane 1). The fraction was concentrated, transferred to problot and stained with Coomassie Brilliant blue. The band was then excised and the N-terminal sequence determined. The resulting six residues indicated the protein to be human complement protein C2. The fully glycosylated version of C2, however should have been 102 kDa.

For “FEVKITPGKPY [C4b β chain derived peptide]”, the “complement inhibition in vitro” value (Classical Pathway) was “shown to inhibit complement in vitro”.

In the case of “HEVKIKHFSPY (shistosoma haematobium) [H17]”, the “complement inhibition in vitro” value (Classical Pathway) is reported as “capable of effective complement inhibition in vitro”, the “reduction of haemorrage (Evans blue extravasation)” value ([1]; 1 μg dose, 4 h) is reported as 30% and the “reduction of oedema (by weight)” value ([1]; 1 μg dose, 4 h) is reported as 28%.

For “HEVKIKSPY [TOR-ed1 peptide; probably a misprint of …]”, the “inflammation mediated by immune complexes and Classical pathway complement (Type III hypersensitivity)” value ([1]; in vivo) was “reduce inflammation”.

In the case of “NH2-Met-Ser-Pro-Ser-Leu-Val-Ser-Asp-Thr-Gln-Lys-His-Glu-Arg-Gly-Ser-His-Glu-Val-Lys-Ile-Lys-His-Phe-Ser-Pro-Tyr-CO2H (H-MSPSLVSDTQKHERGSHEVKIKHFSPY-OH) [TORE-ed-1 peptide, 27-mer peptide of extracellular domain 1 of ShTORE]”, the “complement inhibition in vitro” value (Classical Pathway) is reported as “inhibit complement action in vitro”, the “concentration able to inhibit the haemolytic activity of C2 from the Classical pathway” value (Classical Pathway; normal human serum) is reported as 10 µM and the “IC60, inhibition of lysis of antibody-sensitized sheep erythrocytes” value (Classical Pathway; normal human serum, haemoglobin release at 412 nm) is reported as “approximately 10 μM”. For the same substance, the “inhibition of haemolytic activity” value (human complement C2 [2]) was “inhibit haemolytic activity” and the “interaction with C2” value (human complement C2 [3]) was “interact with human complement protein C2”.

For “SSTSDIRLVIHTKTGPIYIKST (shistosoma haematobium) [SEQ ID NO 2]”, the “complement inhibition in vitro” value (Classical Pathway) was “inhibit complement action in vitro”.
